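Briefly, cells in 96-well plates were exposed to five compound concentrations for 48 h, and endpoints were estimated by linear interpolation. Here, GI50 denotes the concentration required for 50% inhibition of growth. The concentration for full growth arrest is given as TGI.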
Key:
Assay in all cases: DTP human tumour cell line panel, 48 h
PC-3 prostate = system: PC-3 prostate
NCI-H226 lung = system: NCI-H226 lung
NCI-H460 lung = system: NCI-H460 lung
HCT-116 colon = system: HCT-116 colon
KM12 colon = system: KM12 colon
T-47D breast = system: T-47D breast
UO-31 renal = system: UO-31 renal
MDA-MB-435 = system: MDA-MB-435
SK-OV-3 ovarian = system: SK-OV-3 ovarian
A549 NSCLC = system: A549 NSCLC
NCI-H522 lung = system: NCI-H522 lung
HOP-62 NSCLC = system: HOP-62 NSCLC
SR leukemia = system: SR leukemia
RPMI-8226 leukemia = system: RPMI-8226 leukemia
MOLT-4 leukemia = system: MOLT-4 leukemia
HCT-15 colon = system: HCT-15 colon
ACHN renal = system: ACHN renal
SN12C renal = system: SN12C renal
M14 melanoma = system: M14 melanoma
SK-MEL-5 melanoma = system: SK-MEL-5 melanoma
CCRF-CEM leukemia = system: CCRF-CEM leukemia
MCF7 breast = system: MCF7 breast
OVCAR-8 ovarian = system: OVCAR-8 ovarian
HT29 colon = system: HT29 colon
SK-MEL-2 melanoma = system: SK-MEL-2 melanoma
IGROV1 ovarian = system: IGROV1 ovarian
COLO 205 colon = system: COLO 205 colon
TK-10 renal = system: TK-10 renal
SF-539 CNS = system: SF-539 CNS
SNB-19 CNS = system: SNB-19 CNS
UACC-257 melanoma = system: UACC-257 melanoma
OVCAR-4 ovarian = system: OVCAR-4 ovarian
SF-295 CNS = system: SF-295 CNS
HS 578T breast = system: HS 578T breast
BT-549 breast = system: BT-549 breast
MALME-3M melanoma = system: MALME-3M melanoma
K-562 leukemia = system: K-562 leukemia
A498 renal = system: A498 renal
EKVX NSCLC = system: EKVX NSCLC
HOP-92 NSCLC = system: HOP-92 NSCLC
DU-145 prostate = system: DU-145 prostate
SW-620 colon = system: SW-620 colon
HL-60(TB) leukemia = system: HL-60(TB) leukemia
CAKI-1 renal = system: CAKI-1 renal
SK-MEL-28 melanoma = system: SK-MEL-28 melanoma
HCC-2998 colon = system: HCC-2998 colon
786-0 renal = system: 786-0 renal
SF-268 CNS = system: SF-268 CNS
LOX IMVI melanoma = system: LOX IMVI melanoma
OVCAR-3 ovarian = system: OVCAR-3 ovarian
NCI/ADR-RES ovarian = system: NCI/ADR-RES ovarian
NCI-H23 lung = system: NCI-H23 lung
SNB-75 CNS = system: SNB-75 CNS
UACC-62 melanoma = system: UACC-62 melanoma
OVCAR-5 ovarian = system: OVCAR-5 ovarian
MDA-MB-231 breast = system: MDA-MB-231 breast

CN(C)CCCOc1ccc(C(=C(c2ccccc2)C2CCCC2)c2ccc(OCCCN(C)C)cc2)cc1
GI50 (PC-3 prostate): 3.26 µM
TGI (PC-3 prostate): 14.2 µM
GI50 (NCI-H226 lung): 2.81 µM
TGI (NCI-H226 lung): 11.4 µM
GI50 (NCI-H460 lung): 1.69 µM
TGI (NCI-H460 lung): 3.16 µM
GI50 (HCT-116 colon): 1.89 µM
TGI (HCT-116 colon): 4.13 µM
GI50 (KM12 colon): 3.56 µM
TGI (KM12 colon): 13.1 µM
GI50 (T-47D breast): 9.86 µM
TGI (T-47D breast): 25.3 µM
GI50 (UO-31 renal): 1.54 µM
TGI (UO-31 renal): 3.08 µM
GI50 (MDA-MB-435): 1.7 µM
TGI (MDA-MB-435): 3.09 µM
GI50 (SK-OV-3 ovarian): 17.1 µM
TGI (SK-OV-3 ovarian): 33 µM
GI50 (A549 NSCLC): 3.47 µM
TGI (A549 NSCLC): 16.6 µM
GI50 (NCI-H522 lung): 1.55 µM
TGI (NCI-H522 lung): 3.12 µM
GI50 (HOP-62 NSCLC): 14.6 µM
TGI (HOP-62 NSCLC): 32.6 µM
GI50 (SR leukemia): 2 µM
TGI (SR leukemia): 7.36 µM
GI50 (RPMI-8226 leukemia): 2.17 µM
TGI (RPMI-8226 leukemia): 5.75 µM
GI50 (MOLT-4 leukemia): 2.56 µM
TGI (MOLT-4 leukemia): 6.34 µM
GI50 (HCT-15 colon): 1.67 µM
TGI (HCT-15 colon): 3.22 µM
GI50 (ACHN renal): 2.12 µM
TGI (ACHN renal): 4.7 µM
GI50 (SN12C renal): 1.64 µM
TGI (SN12C renal): 3.04 µM
GI50 (M14 melanoma): 1.85 µM
TGI (M14 melanoma): 3.74 µM
GI50 (SK-MEL-5 melanoma): 12.1 µM
TGI (SK-MEL-5 melanoma): 24.5 µM
GI50 (CCRF-CEM leukemia): 2.58 µM
TGI (CCRF-CEM leukemia): 6.85 µM
GI50 (MCF7 breast): 1.33 µM
TGI (MCF7 breast): 2.69 µM
GI50 (OVCAR-8 ovarian): 1.98 µM
TGI (OVCAR-8 ovarian): 4.87 µM
GI50 (HT29 colon): 1.97 µM
TGI (HT29 colon): 3.97 µM
GI50 (SK-MEL-2 melanoma): 11.6 µM
TGI (SK-MEL-2 melanoma): 24.1 µM
GI50 (IGROV1 ovarian): 2.07 µM
TGI (IGROV1 ovarian): 4.58 µM
GI50 (COLO 205 colon): 1.71 µM
TGI (COLO 205 colon): 3.62 µM
GI50 (TK-10 renal): 14.6 µM
TGI (TK-10 renal): 28.9 µM
GI50 (SF-539 CNS): 1.69 µM
TGI (SF-539 CNS): 3.06 µM
GI50 (SNB-19 CNS): 2.15 µM
TGI (SNB-19 CNS): 5.67 µM
GI50 (UACC-257 melanoma): 10.7 µM
TGI (UACC-257 melanoma): 24.1 µM
GI50 (OVCAR-4 ovarian): 1.91 µM
TGI (OVCAR-4 ovarian): 4.34 µM
GI50 (SF-295 CNS): 1.85 µM
TGI (SF-295 CNS): 3.98 µM
GI50 (HS 578T breast): 2.13 µM
TGI (HS 578T breast): 5.53 µM
GI50 (BT-549 breast): 15.3 µM
TGI (BT-549 breast): 30.8 µM
GI50 (MALME-3M melanoma): 1.64 µM
TGI (MALME-3M melanoma): 3.01 µM
GI50 (K-562 leukemia): 2.02 µM
TGI (K-562 leukemia): 5.26 µM
GI50 (A498 renal): 13.8 µM
TGI (A498 renal): 28.5 µM
GI50 (EKVX NSCLC): 7.43 µM
TGI (EKVX NSCLC): 21.3 µM
GI50 (HOP-92 NSCLC): 2.72 µM
TGI (HOP-92 NSCLC): 15.2 µM
GI50 (DU-145 prostate): 4.43 µM
TGI (DU-145 prostate): 15.2 µM
GI50 (SW-620 colon): 1.58 µM
TGI (SW-620 colon): 3.02 µM
GI50 (HL-60(TB) leukemia): 2.03 µM
TGI (HL-60(TB) leukemia): 4.44 µM
GI50 (CAKI-1 renal): 3.62 µM
TGI (CAKI-1 renal): 13.6 µM
GI50 (SK-MEL-28 melanoma): 1.62 µM
TGI (SK-MEL-28 melanoma): 3.01 µM
GI50 (HCC-2998 colon): 1.93 µM
TGI (HCC-2998 colon): 3.91 µM
GI50 (786-0 renal): 2.62 µM
TGI (786-0 renal): 8.3 µM
GI50 (SF-268 CNS): 2.51 µM
TGI (SF-268 CNS): 7.16 µM
GI50 (LOX IMVI melanoma): 1.63 µM
TGI (LOX IMVI melanoma): 2.99 µM
GI50 (OVCAR-3 ovarian): 2.16 µM
TGI (OVCAR-3 ovarian): 5.19 µM
GI50 (NCI/ADR-RES ovarian): 2.85 µM
GI50 (NCI-H23 lung): 4.95 µM
TGI (NCI-H23 lung): 17.5 µM
GI50 (SNB-75 CNS): 9.08 µM
TGI (SNB-75 CNS): 22.1 µM
GI50 (UACC-62 melanoma): 1.6 µM
TGI (UACC-62 melanoma): 2.98 µM
GI50 (OVCAR-5 ovarian): 1.85 µM
TGI (OVCAR-5 ovarian): 4.68 µM
GI50 (MDA-MB-231 breast): 1.74 µM
TGI (MDA-MB-231 breast): 3.22 µM

— PubChem BioAssay (NCI)
